Measurements: ChEMBL document CHEMBL1201862, “PubChem BioAssay data set” (2004)
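Values below derive from 48-hour exposures of cells grown in 96-well plates, with endpoints linearly interpolated between the two concentrations bracketing the appropriate inhibition level. Abbreviation: GI50, concentration required for 50% inhibition of growth.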 Activity calls are given as the source filed them. Rule as the data show it: active = GI50 up to about 1.1 µM and inactive = higher.

Tests used:
Test in all cases: NCI-60 cell line screen, 48 h
DMS-114 = test system: DMS-114
SNB-78 = test system: SNB-78
COLO 205 = test system: COLO 205
SK-MEL-2 = test system: SK-MEL-2
LOX IMVI = test system: LOX IMVI
KM-20L2 = test system: KM-20L2
CAKI-1 = test system: CAKI-1
SR = test system: SR
NCI-H226 = test system: NCI-H226
M19-MEL = test system: M19-MEL
ACHN = test system: ACHN
OVCAR-5 = test system: OVCAR-5
NCI/ADR-RES = test system: NCI/ADR-RES
TK-10 = test system: TK-10
MCF7 = test system: MCF7
HOP-92 = test system: HOP-92
786-0 = test system: 786-0
T47D = test system: T47D

Measured: GI50

CCOC(=O)C1=C(C)N(C2OC(COC(=O)c3ccccc3)C(OC(=O)c3ccccc3)C2OC(=O)c2ccccc2)C(=S)NC1c1ccccc1 (stereo not drawn)
inactive: DMS-114 19 µM | SNB-78 31.8 µM | COLO 205 33.6 µM | SK-MEL-2 64.3 µM | LOX IMVI 58.9 µM | KM-20L2 43.6 µM | CAKI-1 24.4 µM | SR 20 µM | NCI-H226 31.1 µM | M19-MEL 33.1 µM | ACHN 25.1 µM | OVCAR-5 61.7 µM

CC(=O)OCC1OC(OCCCCCCO)C(OC(C)=O)C(OC(C)=O)C1OC(C)=O (stereo not drawn)
inactive: NCI/ADR-RES > 100 µM | SK-MEL-2 > 100 µM | LOX IMVI > 100 µM | TK-10 > 100 µM | CAKI-1 > 100 µM | SR > 100 µM | NCI-H226 > 100 µM | MCF7 > 100 µM | HOP-92 > 100 µM | ACHN > 100 µM | OVCAR-5 > 100 µM

O=C(CC(C(=O)c1cccs1)c1ccc2c(c1)OCO2)c1ccc(Br)cc1 (stereo not drawn)
inactive: COLO 205 > 100 µM | 786-0 > 100 µM | T47D > 100 µM | NCI/ADR-RES > 100 µM | TK-10 > 100 µM | CAKI-1 > 100 µM | SR > 100 µM | NCI-H226 > 100 µM | MCF7 > 100 µM | ACHN > 100 µM

CC1(c2ccccc2)N=c2[nH]cnc2=C(C(N)=O)N1 (stereo not drawn)
inactive: COLO 205 > 100 µM | 786-0 > 100 µM | T47D > 100 µM | NCI/ADR-RES > 100 µM | SK-MEL-2 > 100 µM | LOX IMVI > 100 µM | TK-10 > 100 µM | CAKI-1 > 100 µM | SR > 100 µM | NCI-H226 > 100 µM | MCF7 > 100 µM | HOP-92 > 100 µM | ACHN > 100 µM | OVCAR-5 > 100 µM

COc1ccc(-c2cc(-c3cc(OC)c(OC)c(OC)c3)cc(-c3cc4ccccc4oc3=O)n2)cc1
inactive: COLO 205 > 100 µM | 786-0 2.16 µM | T47D 7.19 µM | NCI/ADR-RES 7.18 µM | SK-MEL-2 20 µM | LOX IMVI 12.7 µM | TK-10 8.18 µM | CAKI-1 4.86 µM | SR 9.79 µM | NCI-H226 3.95 µM | MCF7 16.7 µM | HOP-92 4.07 µM | ACHN 4.13 µM

Clc1cc2c(c(CSC3=NCN(CC4CC4)CN3)c1)OCOC2
inactive: COLO 205 13.6 µM | 786-0 19.8 µM | T47D 12.9 µM | NCI/ADR-RES 20.6 µM | SK-MEL-2 19.1 µM | LOX IMVI 25.1 µM | TK-10 17.2 µM | CAKI-1 34.2 µM | SR 15.2 µM | NCI-H226 20.7 µM | MCF7 20.8 µM | HOP-92 37.6 µM | ACHN 17.6 µM | OVCAR-5 21 µM

N#CC1(C#N)C(=O)c2ccncc2C1=O
inactive: COLO 205 > 100 µM | T47D > 100 µM | NCI/ADR-RES 63.7 µM | SK-MEL-2 > 100 µM | CAKI-1 > 100 µM | SR > 100 µM | NCI-H226 > 100 µM | MCF7 > 100 µM | HOP-92 > 100 µM | ACHN > 100 µM | OVCAR-5 > 100 µM

CCOC(=O)CC(=O)CSc1c(-c2ccccc2)c(=O)n(-c2ccccc2)c(=S)n1-c1ccccc1
inactive: COLO 205 > 100 µM | 786-0 > 100 µM | T47D > 100 µM | NCI/ADR-RES > 100 µM | LOX IMVI > 100 µM | TK-10 > 100 µM | CAKI-1 > 100 µM | SR 95.1 µM | NCI-H226 > 100 µM | MCF7 > 100 µM | HOP-92 > 100 µM | ACHN > 100 µM | OVCAR-5 > 100 µM
